Measured values published in patent US20210268115A1 (priority 2020, published 2021).
Where two headings read alike, the source gives them in different places.

Tests used:
[1] = male, Sprague-Dawley, rat, in vivo
[2] = In vitro release of therapeutic agent from prodrugs in plasma supplemented with lipoprotein lipase; format: in vitro ADME; conditions: free allopregnanolone (parent API) in dog plasma supplemented with LPL, 37° C.
Protocol: In order to probe the release of free drug from TG prodrugs in the systemic circulation, prodrugs are incubated with plasma (rat, dog, monkey, or human) supplemented with lipoprotein lipase (LPL, 200 IU/ml). LPL is a key enzyme required for the hydrolysis of lipoprotein associated TG in the systemic circulation and is therefore expected to be a key contributor to lipolysis of the re-esterified drug-TG construct in plasma, largely via liberation of fatty acids in the sn-1 and the sn-3 position of the TG-mimetic, prior to drug release from the 2′ position via esterase hydrolysis. LPL is active in plasma but is tethered to the luminal surface of vascular endothelial cells under physiological conditions. In the current in vitro studies, plasma is therefore supplemented with LPL to better reflect the in vivo situation.
To start hydrolysis, 10 μl of LPL solution (10,000 IU/ml) will be added to a mixture of 10 μl of prodrug solution (1 mg/ml dissolved in organic solvent, e.g., THF, DMSO, or acetonitrile) and 500 μl of blank plasma. The mixture will be incubated at 37° C. […] The supernatant will be analyzed by HPLC-MS/MS for the potential products (MG form, acid form, and free drug) of prodrug hydrolysis.
The in vitro hydrolysis profile of selected prodrug compounds will be determined in rat, dog, monkey and/or human plasma supplemented with LPL.

[3] = cynomolgus monkey, in vivo; for Prodrug detectability in plasma after dose administration / Tmax: po; for Tmax: male, 8.8 umol/kg
[4] = male, Sprague-Dawley, in vivo

Compound	Cmax ([1]; 2 mg/kg)	Mean Plasma AUC, 0-24 h ([1]; 2 mg/kg)	Tmax ([1]; 2 mg/kg)	other results
CC(=O)OCC(COC(C)=O)OC(=O)CC(C)CC(=O)OC(C)OC(=O)O[C@@H]1CC[C@@]2(C)[C@@H](CC[C@@H]3[C@@H]2CC[C@]2(C)[C@@H](C(C)=O)CC[C@@H]32)C1 (stereo partly shown) [Compound I-38, ALL-CMSI-C5bMe-2-TG-acetate]	–	–	–	Cmax ([1]; po): 335 nM; Mean Plasma AUC, 0-24 h ([1]; po): 0.45 µM·h; Tmax ([1]; po): 1 h
CCCC(=O)OCC(COC(=O)CCC)OC(=O)CC(C)CC(=O)OC(C)OC(=O)O[C@@H]1CC[C@@]2(C)[C@@H](CC[C@@H]3[C@@H]2CC[C@]2(C)[C@@H](C(C)=O)CC[C@@H]32)C1 (stereo partly shown) [Compound I-37, ALL-CMSI-C5bMe-2-TG-butyrate]	–	–	–	Cmax ([1]; po): 138 nM; Mean Plasma AUC, 0-24 h ([1]; po): 0.191 µM·h; Tmax ([1]; po): 0.8 h
CCC(=O)OCC(COC(=O)CC)OC(=O)C(C)CCCCCCCCC(C)C(=O)OC(C)OC(=O)O[C@@H]1CC[C@@]2(C)[C@@H](CC[C@@H]3[C@@H]2CC[C@]2(C)[C@@H](C(C)=O)CC[C@@H]32)C1 (stereo partly shown) [Compound I-6, ALL-CMSI-C12a′aMe-2-TG]	239 nM	0.3209 µM·h	1 h	–
CCCCCCCC/C=C\CCCCCCCC(=O)OCC(COC(=O)CCCCCCC/C=C\CCCCCCCC)OC(=O)CCCCCCC(=O)OCO[C@@H]1CC[C@@]2(C)[C@@H](CC[C@@H]3[C@@H]2CC[C@]2(C)[C@@H](C(C)=O)CC[C@@H]32)C1 [Compound I-41, ALL-ASI-C8-2-TG-oleate]	129 nM	0.211 µM·h	1.7 h	–
CCCCCCCC/C=C\CCCCCCCC(=O)OCC(COC(=O)CCCCCCC/C=C\CCCCCCCC)OC(=O)CC(C)CCCCC(=O)OCO[C@@H]1CC[C@@]2(C)[C@@H](CC[C@@H]3[C@@H]2CC[C@]2(C)[C@@H](C(C)=O)CC[C@@H]32)C1 (stereo partly shown) [Compound I-42, ALL-ASI-C8bMe-2-TG-oleate]	334 nM	0.47 µM·h	1.5 h	–
CCCCCCCCCCCCCCCC(=O)OCC(COC(=O)CCCCCCCCCCCCCCC)OC(=O)CC(C)CC(=O)OC(C)OC(=O)O[C@@H]1CC[C@@]2(C)[C@@H](CC[C@@H]3[C@@H]2CC[C@]2(C)[C@@H](C(C)=O)CC[C@@H]32)C1 (stereo partly shown) [Compound I-8, ALL-CMSI-C5bMe-2-TG]	241 nM	0.3681 µM·h	2.3 h	Parent API present at end of experiment (%) [2]: B (≥20% and <60% release into plasma)
CCC(=O)OCC(COC(=O)CC)OC(=O)C(C)CCCCCCCCC(C)C(=O)OCCCCC(=O)O[C@@H]1CC[C@@]2(C)[C@@H](CC[C@@H]3[C@@H]2CC[C@]2(C)[C@@H](C(C)=O)CC[C@@H]32)C1 (stereo partly shown) [Compound I-5, ALL-FSI5-C12a′aMe-2-TG]	62.8 nM	0.0839 µM·h	1.8 h	–
CCCCCCCC/C=C\CCCCCCCC(=O)OCC(COC(=O)CCCCCCC/C=C\CCCCCCCC)OC(=O)CCCCC(=O)OCO[C@@H]1CC[C@@]2(C)[C@@H](CC[C@@H]3[C@@H]2CC[C@]2(C)[C@@H](C(C)=O)CC[C@@H]32)C1 [Compound I-40, ALL-ASI-C6-2-TG-oleate]	165 nM	0.265 µM·h	1.7 h	–
CCCCCCCC(=O)OCC(COC(=O)CCCCCCC)OC(=O)CC(C)CC(=O)OC(C)OC(=O)O[C@@H]1CC[C@@]2(C)[C@@H](CC[C@@H]3[C@@H]2CC[C@]2(C)[C@@H](C(C)=O)CC[C@@H]32)C1 (stereo partly shown) [Compound I-36, ALL-CMSI-C5bMe-2-TG-octanoate]	–	–	–	Mean Plasma AUC, 0-24 h ([1]; po): 0.312 µM·h; Tmax ([1]; po): 1.2 h; Tolerability of oral administration [3]: well-tolerated; Prodrug detectability in plasma after dose administration [3]: detectable in plasma samples after dose administration at all time-points; Tmax [3]: 4.0 h
CCCCCCCC(=O)OCC(COC(=O)CCCCCCC)OC(=O)CC(C)CC(=O)OCOC(=O)O[C@@H]1CC[C@@]2(C)[C@@H](CC[C@@H]3[C@@H]2CC[C@]2(C)[C@@H](C(C)=O)CC[C@@H]32)C1 (stereo partly shown) [Compound I-47, ALL-CASI-C5bMe-2-TG-octanoate]	–	–	–	Tolerability of oral administration [3]: well-tolerated; Prodrug detectability in plasma after dose administration [3]: detectable in plasma samples after dose administration at all time-points; Tmax [3]: 4.0 h
CCCCCCCC/C=C\CCCCCCCC(=O)OCC(COC(=O)CCCCCCC/C=C\CCCCCCCC)OC(=O)CCCCC(C)CC(=O)OCOC(=O)O[C@@H]1CC[C@@]2(C)[C@@H](CC[C@@H]3[C@@H]2CC[C@]2(C)[C@@H](C(C)=O)CC[C@@H]32)C1 (stereo partly shown) [Compound I-49, ALL-CASI-C8b′Me-2-TG-oleate]	370 nM	0.513 µM·h	1.7 h	–
CC(=O)[C@H]1CC[C@H]2[C@@H]3CC[C@H]4C[C@H](O)CC[C@]4(C)[C@H]3CC[C@]12C [Allopregnanalone, 5α-pregnan-3α-ol-20-one]	–	–	–	Rat - cumulative lymphatic transport: Mean, total lymphatic transport over 6 or 8 hours (%) [4]: 0.1%
